In patent US20140249135A1, “PIM KINASE INHIBITORS AND METHODS OF THEIR USE” (NOVARTIS AG, priority 2007, published 2014):
Where two headings read alike, the source gives them in different places.

Tests used:
Format in all cases: biochemical
Pim2 kinase = Pim2 kinase (Homo sapiens, UniProt Q9P1W9); experiment: Pim2 ATP depletion assay;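 further: Luciferase-based luminescent readout of ATP remaining after PIM2 phosphorylates a BAD peptide, final 5 nM enzyme, 4 µM ATP, 10 µM peptide, 2.5% DMSO, run to roughly half ATP consumption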
Pim2 kinase, sequence (Q9P1W9 whole entry): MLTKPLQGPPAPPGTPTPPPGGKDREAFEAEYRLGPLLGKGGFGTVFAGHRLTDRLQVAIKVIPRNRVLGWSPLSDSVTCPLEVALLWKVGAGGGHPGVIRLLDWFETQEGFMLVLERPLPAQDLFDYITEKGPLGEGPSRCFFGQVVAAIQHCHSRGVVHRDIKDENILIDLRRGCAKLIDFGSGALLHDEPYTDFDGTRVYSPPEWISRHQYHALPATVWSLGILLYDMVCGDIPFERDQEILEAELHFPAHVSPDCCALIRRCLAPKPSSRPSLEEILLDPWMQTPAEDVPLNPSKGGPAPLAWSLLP

Pim1 kinase = Pim1 kinase (Homo sapiens, UniProt P11309); experiment: Pim1 ATP depletion assay;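 further: Luciferase-luciferin luminescence readout of residual ATP after PIM1 transfers phosphate to a peptide substrate, 40 µM ATP added, reaction run to roughly half ATP consumption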
Pim1 kinase, sequence (P11309 whole entry): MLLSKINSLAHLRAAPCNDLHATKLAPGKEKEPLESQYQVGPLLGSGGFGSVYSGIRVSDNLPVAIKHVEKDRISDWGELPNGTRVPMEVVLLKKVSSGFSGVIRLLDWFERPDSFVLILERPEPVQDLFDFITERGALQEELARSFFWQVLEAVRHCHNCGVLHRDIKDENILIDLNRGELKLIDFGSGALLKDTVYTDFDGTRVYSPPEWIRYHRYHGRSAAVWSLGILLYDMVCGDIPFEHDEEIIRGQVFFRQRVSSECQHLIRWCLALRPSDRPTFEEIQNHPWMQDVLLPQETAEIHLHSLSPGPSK

Pim3 kinase = Pim3 kinase (Homo sapiens, UniProt Q86V86); experiment: Pim3 ATP depletion assay
[1] = Pim1 ATP depletion assay, read-out: PIM1 IC50
[2] = Pim1 ATP depletion assay, read-out: IC50 (μM) PIM1

Structure (SMILES) | IC50 (Pim2 kinase; read-out: PIM2 IC50) [µM] | IC50 (Pim1 kinase; [1]) [µM] | IC50 (Pim3 kinase; read-out: PIM3 IC50) [µM] | IC50 (Pim2 kinase; read-out: IC50 (μM) PIM2) [µM] | IC50 (Pim1 kinase; [2]) [µM] | IC50 (Pim3 kinase; read-out: IC50 (μM) PIM3) [µM] | IC50 (Pim1 kinase) [µM]
Nc1ccc(-c2ccncc2NC(=O)c2nc(-c3ccccc3F)ccc2N)cn1 [Example 604, 3-amino-N-(6-amino-3,4′-bipyridin-3′-yl)-6-(2-fluoro-phenyl)pyridine-2-carboxamide] | < 1 | < 1 | < 1 |  |  |  | 
CC1CC(N)CN(c2ccncc2NC(=O)c2nc(-c3c(F)cccc3F)ccc2N)C1 (stereo not drawn) [Example 288, 3-Amino-6-(2,6-difluoro-phenyl)-pyridine-2-carboxylic acid (3-amino-5-methyl-3,4,5,6-tetrahydro-2H-[1,4′]bipyridinyl-3′-yl)-amide] |  |  |  | < 1 | < 1 | < 1 | 
CN1CCN(c2ccc(-c3ccc(N)c(C(=O)Nc4cnccc4-c4cc(N)nc(C(F)(F)F)n4)n3)cc2)CC1 [Example 574, 3-Amino-6-[4-(4-methyl-piperazin-1-yl)-phenyl]-pyridine-2-carboxylic acid [4-(6-amino-2-trifluoromethyl-pyrimidin-4-yl)-pyridin-3-yl]-amide] | < 1 | < 1 | < 1 |  |  |  | 
Nc1ncc(-c2ccc(N)c(C(=O)Nc3cnccc3N3CCC[C@H](N)C3)n2)c(C(F)(F)F)n1 [Example 486, 3-Amino-6-(2-amino-4-trifluoromethyl-pyrimidin-5-yl)-pyridine-2-carboxylic acid (3-amino-3,4,5,6-tetrahydro-2H-[1,4′]bipyridinyl-3′-yl)-amide] |  |  |  | < 1 | < 1 | < 1 | 
Nc1cc(F)cnc1C(=O)Nc1cnccc1N1CCC[C@H](N)C1 [Example 260, 3-amino-N-{4-[(3S)-3-amino-piperidin-1-yl]pyridin-3-yl}-5-fluoropyridine-2-carboxamide] |  |  |  | < 1 | < 1 | < 1 | 
Nc1ccc(-c2cccc(Cl)c2F)nc1C(=O)Nc1cnccc1N1CCC[C@H](N)C1 [Example 479, 3-Amino-6-(3-chloro-2-fluoro-phenyl)-pyridine-2-carboxylic acid (3-amino-3,4,5,6-tetrahydro-2H-[1,4′]bipyridinyl-3′-yl)-amide] |  |  |  | < 1 | < 1 | < 1 | 
COC1CCN(c2ccncc2NC(=O)c2nc(-c3cc(C(=O)NC(C)C)ccc3F)ccc2N)CC1N (stereo not drawn) [Example 299, 3-Amino-6-(2-fluoro-5-isopropylcarbamoyl-phenyl)-pyridine-2-carboxylic acid (3-amino-4-methoxy-3,4,5,6-tetra-hydro-2H-[1,4′]bipyridinyl-3′-yl)-amide] |  |  |  | < 1 | < 1 | < 1 | 
CCOc1ccc(F)c(-c2ccc(N)c(C(=O)Nc3cnccc3N3CCC[C@H](N)C3)n2)c1F [Example 492, 3-Amino-6-(3-ethoxy-2,6-difluoro-phenyl)-pyridine-2-carboxylic acid (3-amino-3,4,5,6-tetrahydro-2H-[1,4′]bipyridinyl-3′-yl)-amide] |  |  |  | < 1 | < 1 | < 1 | 
Cc1nc(N)cc(-c2ccncc2NC(=O)c2nc(-c3c(F)ccc(OC(C)C)c3F)ccc2N)n1 [Example 537, 3-Amino-6-(2,6-difluoro-3-isopropoxy-phenyl)-pyridine-2-carboxylic acid [4-(6-amino-2-methyl-pyrimidin-4-yl)-pyridin-3-yl]-amide] | < 1 | < 1 | < 1 |  |  |  | 
Nc1cc(F)c(-c2ccncc2)nc1C(=O)Nc1cnccc1N1CCC[C@H](N)C1 [Example 513, 5-Amino-3-fluoro-[2,4′]bi-pyridinyl-6-carboxylic acid (3-amino-3,4,5,6-tetrahydro-2H-[1,4′]bipyridinyl-3′-yl)-amide] |  |  |  | < 1 | < 1 | < 1 | 
COc1ncccc1-c1ccncc1NC(=O)c1nc(-c2ccccc2F)ccc1N [Example 611, 3-amino-6-(2-fluorophenyl)-N-(2-methoxy-3,4′-bipyridin-3′-yl)pyridine-2-carboxamide] | < 1 | < 1 | < 1 |  |  |  | 
CC(C)NC(=O)c1ccc(F)c(-c2ccc(N)c(C(=O)Nc3cnccc3N3CCCC(C)(N)C3)n2)c1 (stereo not drawn) [Example 675, 3-Amino-6-(2-fluoro-5-isopropylcarbamoyl-phenyl)-pyridine-2-carboxylic acid (3-amino-3-methyl-3,4,5,6-tetra-hydro-2H-[1,4′]bipyridinyl-3′-yl)-amide] | < 1 | < 1 | < 1 |  |  |  | 
Nc1ccc(-c2ccccc2F)nc1C(=O)Nc1cnccc1N1CCC[C@@H](O)C1 [Example 659, 3-Amino-6-(2-fluoro-phenyl)-pyridine-2-carboxylic acid (3-hydroxy-3,4,5,6-tetrahydro-2H-[1,4′]bipyridinyl-3′-yl)-amide] | < 1 | < 1 | < 1 |  |  |  | 
Nc1nccc(-c2ccc(N)c(C(=O)Nc3cnccc3N3CCC[C@H](N)C3)n2)n1 [Example 728, 3-Amino-6-(2-amino-pyrimidin-4-yl)-pyridine-2-carboxylic acid (3-amino-3,4,5,6-tetrahydro-2H-[1,4′]bipyridinyl-3′-yl)-amide] | < 1 |  | < 1 |  |  |  | < 1
Nc1ccc(C2CC3CCC2C3)nc1C(=O)Nc1cnccc1N1CCC[C@H](N)C1 (stereo in doubt) [Example 646, 3-Amino-6-bicyclo[2.2.1]hept-2-yl-pyridine-2-carboxylic acid (3-amino-3,4,5,6-tetrahydro-2H-[1,4′]bipyridinyl-3′-yl)-amide] | < 1 | < 1 | < 1 |  |  |  | 
COc1nc(N)cc(-c2ccncc2NC(=O)c2nc(-c3c(F)cccc3F)ccc2N)n1 [Example 271, 3-Amino-6-(2,6-difluoro-phenyl)-pyridine-2-carboxylic acid [4-(6-amino-2-methoxy-pyrimidin-4-yl)-pyridin-3-yl]-amide] |  |  |  | < 1 | < 1 | < 1 | 
Nc1ncccc1C(=O)Nc1cnccc1N1CCCC(N)C1 (stereo not drawn) [Example 200, 2-amino-N-[4-(3-aminopiperidin-1-yl)pyridin-3-yl]nicotinamide] |  |  |  | > 25 | 10 to 25 | > 25 | 
NCC(=O)N1CCN(c2ccncc2NC(=O)c2nc(-c3ccccc3F)ccc2N)CC1 [Example 252, 3-Amino-6-(2-fluoro-phenyl)-pyridine-2-carboxylic acid {4-[4-(2-amino-acetyl)-piperazin-1-yl]-pyridin-3-yl}-amide] |  |  |  | < 1 | < 1 | < 1 | 
COc1cc(-c2ccc(N)c(C(=O)Nc3cnccc3N3CCC[C@H](N)C3)n2)cnc1N [Example 416, 5,6′-diamino-5′-methoxy-[2,3′]bi-pyridinyl-6-carboxylic acid ((S)-3-amino-3,4,5,6-tetrahydro-2H-[1,4′]bipyridinyl-3′-yl)-amide] |  |  |  | < 1 | < 1 | < 1 | 
CC(=O)Nc1cccc(-c2nc(C(=O)Nc3cnccc3N3CCC[C@H](N)C3)c(N)cc2F)c1 [Example 500, 6-(3-Acetylamino-phenyl)-3-amino-5-fluoro-pyridine-2-carboxylic acid (3-amino-3,4,5,6-tetrahydro-2H-[1,4′]bipyridinyl-3′-yl)-amide] |  |  |  | < 1 | < 1 | < 1 | 
